The values below come from ChEMBL document CHEMBL1201862, “PubChem BioAssay data set” (2004).

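Five compound concentrations were applied to cells in 96-well plates for 48 hours; endpoints were derived by simple linear interpolation of the resulting dose-response curve. GI50 = concentration required for 50% inhibition of growth.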 The source made the active and inactive calls. Cut-off read from the data, not from the text of the source: active = GI50 up to about 1.1 µM and inactive = higher.

Some test systems named below: T47D; MDA-MB-231; OVCAR-5; OVCAR-4; OVCAR-8; UO-31; HCT-15; SW-620; CAKI-1; MCF7; NCI/ADR-RES; RPMI-8226; NCI-H226; A549; CCRF-CEM; SNB-75; LOX IMVI.
Common to all, as to test: NCI tumour cell line growth inhibition, 48 h

Take `CCCCCCCCCCCC(=O)N(CCCCCCCCC)CC(O)C(O)C(OC1OC(CO)C(O)C(O)C1O)C(O)CO` (centres undefined): the GI50 in the experiment with T47D was 20.5 µM (inactive); in the experiment on MDA-MB-231, 26 µM (inactive); in the experiment with OVCAR-5 it was 22.7 µM (inactive); in the experiment on OVCAR-4 it was 21 µM (inactive); in the experiment on OVCAR-8 it was 20.6 µM (inactive); in the experiment on UO-31, 17 µM (inactive). Also, the GI50 with HCT-15 is 16.9 µM; in the experiment with SW-620, 18.8 µM (inactive); in the experiment with CAKI-1, 20.7 µM (inactive); with MCF7, 35.8 µM (inactive); in the experiment on NCI/ADR-RES, 20.1 µM (inactive); in the experiment with RPMI-8226 it was 34 µM (inactive). In addition, the GI50 in the experiment with NCI-H226 is 20.4 µM (inactive); in the experiment with A549, 21 µM (inactive); in the experiment with CCRF-CEM, 24 µM (inactive); in the experiment with SNB-75 it was 18.5 µM (inactive); in the experiment with LOX IMVI it was 20.9 µM (inactive).

`COc1cc(O)c2c(=O)c(O)c(-c3ccc(O)c(OC)c3)oc2c1` [RHAMNAZIN]: the GI50 in the experiment on T47D is > 100 µM (inactive); in the experiment on MDA-MB-231, 5.57 µM (inactive); with OVCAR-5, > 100 µM (inactive); in the experiment on OVCAR-4 it was 2.48 µM (inactive); in the experiment with OVCAR-8, 3.52 µM (inactive); with HCT-15, more than 19.6 µM. Moreover, the GI50 with SW-620 is 18.5 µM (inactive); in the experiment with CAKI-1, 3.5 µM (inactive); in the experiment on MCF7, 2.72 µM (inactive); in the experiment on NCI/ADR-RES it was 5.05 µM (inactive); with RPMI-8226, 5.98 µM (inactive); with NCI-H226, > 26.5 µM (inactive). In addition, the GI50 is > 22.9 µM (inactive) in the experiment with A549, 2.92 µM (inactive) in the experiment with CCRF-CEM, 2.28 µM (inactive) in the experiment with SNB-75 and 3.19 µM (inactive) with LOX IMVI.

As to `c1ccc(C(c2cccc3c2ccc2ccccc23)C(c2ccccc2)c2cccc3c2ccc2ccccc23)cc1` (centres undefined), the GI50 in the experiment with T47D, in the experiment on MDA-MB-231, with OVCAR-5, with OVCAR-4, with OVCAR-8 and in the experiment with UO-31 was > 100 µM (inactive) throughout. For the same compound, the GI50 with HCT-15 was more than 100 µM; in the experiment with SW-620 it was > 100 µM (inactive); in the experiment with CAKI-1, > 100 µM (inactive); with MCF7, > 100 µM (inactive); with NCI/ADR-RES, > 100 µM (inactive); with RPMI-8226 it was > 100 µM (inactive). Besides, the GI50 with NCI-H226, in the experiment with A549, in the experiment with CCRF-CEM, in the experiment on SNB-75 and with LOX IMVI was > 100 µM (inactive) in each case.

`C[B@@-]1(c2ccc(C(F)(F)F)cc2)N[C@@H](Cc2ccccc2)C(=O)O1`: the GI50 is > 100 µM (inactive) in the experiment with T47D; > 100 µM (inactive) in the experiment on MDA-MB-231; > 100 µM (inactive) in the experiment with OVCAR-5; > 100 µM (inactive) with OVCAR-4; > 100 µM (inactive) with OVCAR-8; 88.1 µM (inactive) with UO-31. The GI50 in the experiment with HCT-15 is more than 100 µM; with SW-620, > 100 µM (inactive); in the experiment with MCF7, > 100 µM (inactive); in the experiment with NCI/ADR-RES it was > 100 µM (inactive); in the experiment on RPMI-8226, > 100 µM (inactive); with NCI-H226 it was > 100 µM (inactive). For the same compound, the GI50 in the experiment with A549 was > 100 µM (inactive); with CCRF-CEM, > 100 µM (inactive); with SNB-75, 31.6 µM (inactive); in the experiment with LOX IMVI it was > 100 µM (inactive).

For `CC(=O)NC(Cc1ccccc1)NC(=O)O` (centres undefined), the GI50 in the experiment with T47D, in the experiment on MDA-MB-231, with OVCAR-5, with OVCAR-4, in the experiment on OVCAR-8 and with UO-31 was > 100 µM (inactive) each time. Further, the GI50 in the experiment with HCT-15 is more than 100 µM; with SW-620 it was > 100 µM (inactive); in the experiment on CAKI-1 it was > 100 µM (inactive); in the experiment with MCF7 it was > 100 µM (inactive); in the experiment on NCI/ADR-RES, > 100 µM (inactive); in the experiment on RPMI-8226 it was > 100 µM (inactive). Also, the GI50 in the experiment on NCI-H226, in the experiment with A549, with CCRF-CEM, with SNB-75 and in the experiment with LOX IMVI was > 100 µM (inactive) each time.

Turning to `Cc1csc(-c2cn(C)c3c2C(=O)C(=N)C=C3O)n1`, the GI50 in the experiment on T47D is 17.7 µM (inactive); with MDA-MB-231 it was 51.6 µM (inactive); in the experiment with OVCAR-5, 42.4 µM (inactive); in the experiment on OVCAR-4 it was > 100 µM (inactive); in the experiment on OVCAR-8, 6.34 µM (inactive); with UO-31 it was 5.9 µM (inactive). Also, the GI50 was 6.59 µM in the experiment on HCT-15; 9.73 µM (inactive) in the experiment on SW-620; 3.68 µM (inactive) with CAKI-1; 3.27 µM (inactive) in the experiment with MCF7; 9.98 µM (inactive) in the experiment with NCI/ADR-RES; 2.83 µM (inactive) with RPMI-8226. Also, the GI50 is 8.39 µM (inactive) with NCI-H226; 2.65 µM (inactive) in the experiment on A549; 5.31 µM (inactive) in the experiment on CCRF-CEM; 1.8 µM (inactive) in the experiment with SNB-75; 3.52 µM (inactive) in the experiment with LOX IMVI.

Take `CC(C)=CC(Cc1ccccc1)S(=O)(=O)c1nc2ccccc2s1` (centres undefined): the GI50 in the experiment with T47D was 23.6 µM (inactive); with MDA-MB-231, 19.8 µM (inactive); in the experiment with OVCAR-5, 19.2 µM (inactive); in the experiment on OVCAR-4 it was 15.9 µM (inactive); with OVCAR-8 it was 15.4 µM (inactive); in the experiment on UO-31, 13.8 µM (inactive). The GI50 with HCT-15 is 17.7 µM; in the experiment on SW-620, 18.7 µM (inactive); with CAKI-1, 4.05 µM (inactive); with MCF7, 14.7 µM (inactive); in the experiment on NCI/ADR-RES it was 19.7 µM (inactive); in the experiment with RPMI-8226, 10.5 µM (inactive). Moreover, the GI50 in the experiment with NCI-H226 is 13.3 µM (inactive); in the experiment with A549, 23.4 µM (inactive); in the experiment on CCRF-CEM it was 2.37 µM (inactive); with SNB-75 it was 16.6 µM (inactive); with LOX IMVI it was 2.69 µM (inactive).

As to `Cc1nnc(N)s/c1=N/O`, the GI50 with T47D, with MDA-MB-231, in the experiment on OVCAR-5, in the experiment on OVCAR-4, in the experiment on OVCAR-8 and with UO-31 was > 100 µM (inactive) throughout. In addition, the GI50 in the experiment on HCT-15 is more than 100 µM; in the experiment with SW-620, > 100 µM (inactive); with CAKI-1, > 100 µM (inactive); in the experiment with MCF7, > 100 µM (inactive); in the experiment on NCI/ADR-RES, > 100 µM (inactive); in the experiment on RPMI-8226, > 100 µM (inactive). Moreover, the GI50 with NCI-H226, in the experiment with A549, in the experiment with CCRF-CEM, with SNB-75 and in the experiment on LOX IMVI was > 100 µM (inactive) each time.

With `C=C1CCN2CC[C@@H](OC(=O)/C(C)=C\C)[C@@H]12`, the GI50 in the experiment with T47D, with MDA-MB-231, in the experiment on OVCAR-5, with OVCAR-4, with OVCAR-8 and with UO-31 was > 100 µM (inactive) in each case. Besides, the GI50 in the experiment on HCT-15 was more than 100 µM; in the experiment with SW-620, > 100 µM (inactive); with CAKI-1, > 100 µM (inactive); in the experiment with MCF7 it was > 100 µM (inactive); in the experiment with NCI/ADR-RES, > 100 µM (inactive); with RPMI-8226 it was > 100 µM (inactive). Moreover, the GI50 in the experiment with NCI-H226, in the experiment with A549, in the experiment with CCRF-CEM, in the experiment on SNB-75 and in the experiment on LOX IMVI was > 100 µM (inactive) each time.

Regarding `COC1OC(COC(=O)c2cc(O)c(O)c(O)c2)C(OC(=O)c2cc(O)c(O)c(O)c2)C(OC(=O)c2cc(O)c(O)c(O)c2)C1OC(=O)c1cc(O)c(O)c(O)c1` (centres undefined), the GI50 in the experiment with T47D was 52.4 µM (inactive); in the experiment with MDA-MB-231 it was 26.2 µM (inactive); in the experiment on OVCAR-5, 57.5 µM (inactive); with OVCAR-4, 41.3 µM (inactive); in the experiment with OVCAR-8, 27.2 µM (inactive); in the experiment with UO-31, 17.1 µM (inactive). The GI50 in the experiment on HCT-15 was 47.2 µM; in the experiment with SW-620, 31.6 µM (inactive); in the experiment with CAKI-1 it was 41.4 µM (inactive); in the experiment on MCF7 it was > 100 µM (inactive); with NCI/ADR-RES, 29.2 µM (inactive); in the experiment with RPMI-8226, 28.3 µM (inactive). The GI50 in the experiment with NCI-H226 is 4.48 µM (inactive); with A549 it was 33 µM (inactive); in the experiment on CCRF-CEM, 12.8 µM (inactive); in the experiment with SNB-75, 26.3 µM (inactive); in the experiment with LOX IMVI, 13.5 µM (inactive).

`CCOC(=O)c1cnc(N(C)C)nc1SC(=N)N`: the GI50 in the experiment with T47D was > 100 µM (inactive); in the experiment on MDA-MB-231, > 100 µM (inactive); in the experiment on OVCAR-5, > 100 µM (inactive); with OVCAR-4, > 100 µM (inactive); with OVCAR-8 it was > 100 µM (inactive); in the experiment on HCT-15, more than 100 µM. The GI50 in the experiment with SW-620, with CAKI-1, with MCF7, with NCI/ADR-RES, in the experiment with RPMI-8226 and with NCI-H226 was > 100 µM (inactive) throughout. Further, the GI50 in the experiment on A549, in the experiment on SNB-75 and in the experiment on LOX IMVI was > 100 µM (inactive) each time.

Take `O=NN1CCNC1Cc1ccccc1` (centres undefined): the GI50 is 47.1 µM (inactive) with T47D; > 100 µM (inactive) with MDA-MB-231; > 100 µM (inactive) in the experiment with OVCAR-5; > 100 µM (inactive) in the experiment with OVCAR-4; > 100 µM (inactive) in the experiment on OVCAR-8; 43.7 µM (inactive) in the experiment with UO-31. Also, the GI50 with HCT-15 is more than 100 µM; in the experiment on SW-620, > 100 µM (inactive); in the experiment on MCF7 it was 37.2 µM (inactive); in the experiment with NCI/ADR-RES, > 100 µM (inactive); in the experiment with RPMI-8226, 70 µM (inactive); with NCI-H226, > 100 µM (inactive). For the same compound, the GI50 in the experiment on A549 is > 100 µM (inactive); in the experiment with CCRF-CEM, 31.8 µM (inactive); with SNB-75, 18.3 µM (inactive); with LOX IMVI, > 100 µM (inactive).
